Results as given in patent publication US20240254108A1, “COMPOUND COMPRISING PYRROLIDINE AS LINKER, AND PHARMACEUTICAL COMPOSITION COMPRISING SAME” (BEAD TECH INC., priority 2021, published 2024).

System: factors (genes) causing atopic dermatitis
Assay: Expression of atopic dermatitis factors (genes) in skin of DNFB-treated mice, real time PCR (Experimental Example 4)
Format: in vivo
Conditions: RNA from skin of DNFB-treated female BALB/C mice, compound 100 μM on skin once a day to day 16; FIGS. 9 to 12
Method: For real time PCR, RNA was extracted using RNAiso Plus (TAKARA, Japan) and cDNA was synthesized using a cDNA synthesis kit (TAKARA, JAPAN). The polymerization reaction was carried out using the synthesized cDNA and a Sybr green kit (Enzynomics, Korea). […]

NC(=O)[C@H](Cc1c[nH]cn1)NC(=O)[C@H]1CCCN1C(=O)c1cccc(O)c1O [Example 18]
expression of the factors (genes) causing atopic dermatitis: reduce the expression of the factors (genes)
